Data on four compounds can be found in publication PMC5564600 (Oncotarget, 2017).

Holding throughout (test): biochemical
Holding throughout (format): binding

Test [1] has as its target T1, panel of 442 kinases (Homo sapiens, UniProt P09619).
T1 construct: purchased Ambit Biosciences (scanMAXX KINOMEscan)
Conditions: kinase PDGFRB; for remaining activity at 1 µM: read-out: % of control at 1 µM.

The target of test [2] is T2, panel of 442 kinases (Homo sapiens, UniProt Q9Y4K4).
T2 construct: purchased Ambit Biosciences (scanMAXX KINOMEscan)
T2 sequence (Q9Y4K4 whole entry): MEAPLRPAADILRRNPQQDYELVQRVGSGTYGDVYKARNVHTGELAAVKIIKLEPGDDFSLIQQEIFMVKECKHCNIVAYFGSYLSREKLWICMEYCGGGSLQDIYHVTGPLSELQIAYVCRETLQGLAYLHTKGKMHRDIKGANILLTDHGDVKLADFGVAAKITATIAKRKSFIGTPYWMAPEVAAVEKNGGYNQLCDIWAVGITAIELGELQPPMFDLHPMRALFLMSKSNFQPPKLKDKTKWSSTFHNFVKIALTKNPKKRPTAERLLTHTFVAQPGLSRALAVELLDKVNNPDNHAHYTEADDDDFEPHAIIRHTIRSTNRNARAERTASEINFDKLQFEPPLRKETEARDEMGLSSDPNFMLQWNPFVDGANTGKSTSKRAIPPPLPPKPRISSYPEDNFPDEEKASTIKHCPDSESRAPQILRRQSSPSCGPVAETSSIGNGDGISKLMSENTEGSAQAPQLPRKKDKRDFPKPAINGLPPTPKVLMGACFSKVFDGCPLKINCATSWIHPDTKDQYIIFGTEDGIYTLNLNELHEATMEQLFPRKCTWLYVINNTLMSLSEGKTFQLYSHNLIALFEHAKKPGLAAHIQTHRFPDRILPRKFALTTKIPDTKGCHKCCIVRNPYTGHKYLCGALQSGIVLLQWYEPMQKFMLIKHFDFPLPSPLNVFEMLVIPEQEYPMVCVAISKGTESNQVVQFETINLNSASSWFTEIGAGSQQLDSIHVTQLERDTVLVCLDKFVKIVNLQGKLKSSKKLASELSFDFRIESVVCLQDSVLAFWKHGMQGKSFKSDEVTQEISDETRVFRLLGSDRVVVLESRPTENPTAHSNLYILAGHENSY
Conditions: kinase MAP4K5; for remaining activity at 1 µM: read-out: % of control at 1 µM.

The target in test [3] is T3, panel of 442 kinases (Homo sapiens, UniProt Q9Y5S2).
T3 construct: purchased Ambit Biosciences (scanMAXX KINOMEscan)
T3 sequence (Q9Y5S2 whole entry): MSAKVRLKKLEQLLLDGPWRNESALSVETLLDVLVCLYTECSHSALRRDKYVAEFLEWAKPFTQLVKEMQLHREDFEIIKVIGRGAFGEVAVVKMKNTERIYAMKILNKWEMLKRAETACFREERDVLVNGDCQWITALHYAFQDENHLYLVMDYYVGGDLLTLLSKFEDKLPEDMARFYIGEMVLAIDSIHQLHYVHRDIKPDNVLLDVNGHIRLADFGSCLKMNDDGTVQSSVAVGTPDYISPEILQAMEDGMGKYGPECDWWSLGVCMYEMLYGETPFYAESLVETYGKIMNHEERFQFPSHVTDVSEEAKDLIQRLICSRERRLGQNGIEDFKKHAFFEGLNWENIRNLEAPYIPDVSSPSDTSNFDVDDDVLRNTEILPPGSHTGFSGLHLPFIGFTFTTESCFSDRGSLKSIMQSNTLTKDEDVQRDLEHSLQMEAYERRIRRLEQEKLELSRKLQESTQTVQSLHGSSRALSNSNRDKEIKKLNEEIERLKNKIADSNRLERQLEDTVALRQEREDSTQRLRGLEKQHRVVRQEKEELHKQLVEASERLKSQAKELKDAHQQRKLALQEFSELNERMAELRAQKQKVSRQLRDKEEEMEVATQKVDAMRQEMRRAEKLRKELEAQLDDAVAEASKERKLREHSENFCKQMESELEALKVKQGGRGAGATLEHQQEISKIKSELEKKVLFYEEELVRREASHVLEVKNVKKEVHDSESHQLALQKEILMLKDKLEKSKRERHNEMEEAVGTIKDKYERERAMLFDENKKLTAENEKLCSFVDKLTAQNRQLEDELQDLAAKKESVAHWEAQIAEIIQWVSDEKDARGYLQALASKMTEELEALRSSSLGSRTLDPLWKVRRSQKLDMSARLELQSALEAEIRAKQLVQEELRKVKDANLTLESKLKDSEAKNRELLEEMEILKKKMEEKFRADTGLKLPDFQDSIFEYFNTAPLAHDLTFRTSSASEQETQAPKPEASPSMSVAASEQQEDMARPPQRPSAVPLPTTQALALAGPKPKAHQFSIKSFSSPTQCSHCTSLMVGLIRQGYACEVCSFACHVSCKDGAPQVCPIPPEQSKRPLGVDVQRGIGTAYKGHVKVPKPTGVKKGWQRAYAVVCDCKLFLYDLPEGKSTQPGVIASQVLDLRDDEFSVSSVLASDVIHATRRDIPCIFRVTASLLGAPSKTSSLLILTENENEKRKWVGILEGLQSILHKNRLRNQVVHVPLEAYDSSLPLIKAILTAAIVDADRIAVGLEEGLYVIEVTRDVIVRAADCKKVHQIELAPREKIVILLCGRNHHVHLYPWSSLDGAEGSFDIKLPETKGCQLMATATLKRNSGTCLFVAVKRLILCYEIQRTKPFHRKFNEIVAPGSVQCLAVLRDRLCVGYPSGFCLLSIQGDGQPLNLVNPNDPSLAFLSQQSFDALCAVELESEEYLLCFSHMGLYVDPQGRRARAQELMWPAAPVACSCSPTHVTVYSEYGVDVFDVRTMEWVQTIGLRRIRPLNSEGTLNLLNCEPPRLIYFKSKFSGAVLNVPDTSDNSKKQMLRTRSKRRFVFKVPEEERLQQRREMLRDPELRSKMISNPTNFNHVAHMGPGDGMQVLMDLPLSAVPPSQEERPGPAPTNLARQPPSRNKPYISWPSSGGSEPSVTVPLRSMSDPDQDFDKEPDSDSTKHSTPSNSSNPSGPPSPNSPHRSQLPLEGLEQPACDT
The settings on record: kinase MRCKB; for remaining activity at 1 µM: read-out: % of control at 1 µM.

Test [4] deals with T4, panel of 442 kinases (Homo sapiens, UniProt Q99755).
T4 construct: purchased Ambit Biosciences (scanMAXX KINOMEscan)
T4 sequence (Q99755 whole entry): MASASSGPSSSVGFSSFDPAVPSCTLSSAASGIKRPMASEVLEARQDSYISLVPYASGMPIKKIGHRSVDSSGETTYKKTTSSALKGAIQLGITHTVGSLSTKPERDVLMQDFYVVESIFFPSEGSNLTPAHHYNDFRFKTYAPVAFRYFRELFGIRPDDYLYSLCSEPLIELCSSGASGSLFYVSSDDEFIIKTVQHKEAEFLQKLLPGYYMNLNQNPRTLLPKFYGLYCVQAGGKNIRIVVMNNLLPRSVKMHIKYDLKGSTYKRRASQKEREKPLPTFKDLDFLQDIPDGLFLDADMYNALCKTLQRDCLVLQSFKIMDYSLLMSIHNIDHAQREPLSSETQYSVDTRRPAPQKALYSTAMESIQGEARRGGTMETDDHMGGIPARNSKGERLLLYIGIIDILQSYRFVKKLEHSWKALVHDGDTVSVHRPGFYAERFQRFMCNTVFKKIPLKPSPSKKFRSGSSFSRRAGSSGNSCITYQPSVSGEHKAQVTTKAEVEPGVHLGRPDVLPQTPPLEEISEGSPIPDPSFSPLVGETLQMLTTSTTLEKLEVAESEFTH
Conditions: kinase PIP5K1A; for remaining activity at 1 µM: read-out: % of control at 1 µM.

Test [5] concerns the target T5, panel of 442 kinases (Homo sapiens, UniProt Q13043).
T5 construct: purchased Ambit Biosciences (scanMAXX KINOMEscan)
T5 sequence (Q13043 1-487): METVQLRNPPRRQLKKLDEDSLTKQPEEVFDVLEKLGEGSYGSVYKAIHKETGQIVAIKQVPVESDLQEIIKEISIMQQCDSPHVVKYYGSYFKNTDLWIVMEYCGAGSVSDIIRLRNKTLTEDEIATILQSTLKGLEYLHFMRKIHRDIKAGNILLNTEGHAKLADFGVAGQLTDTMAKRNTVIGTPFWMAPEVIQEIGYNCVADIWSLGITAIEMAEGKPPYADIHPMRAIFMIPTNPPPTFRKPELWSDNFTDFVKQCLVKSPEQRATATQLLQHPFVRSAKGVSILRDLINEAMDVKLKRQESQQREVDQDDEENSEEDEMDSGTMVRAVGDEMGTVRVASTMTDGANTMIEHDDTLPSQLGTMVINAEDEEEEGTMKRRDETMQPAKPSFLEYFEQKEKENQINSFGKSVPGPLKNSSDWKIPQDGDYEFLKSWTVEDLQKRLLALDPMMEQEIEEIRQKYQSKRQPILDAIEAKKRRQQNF
Conditions: kinase MST1; for remaining activity at 1 µM: read-out: % of control at 1 µM.

The target of test [6] is T6, panel of 442 kinases (Homo sapiens, UniProt Q8WXR4).
T6 construct: purchased Ambit Biosciences (scanMAXX KINOMEscan)
T6 sequence (Q8WXR4 1-1341): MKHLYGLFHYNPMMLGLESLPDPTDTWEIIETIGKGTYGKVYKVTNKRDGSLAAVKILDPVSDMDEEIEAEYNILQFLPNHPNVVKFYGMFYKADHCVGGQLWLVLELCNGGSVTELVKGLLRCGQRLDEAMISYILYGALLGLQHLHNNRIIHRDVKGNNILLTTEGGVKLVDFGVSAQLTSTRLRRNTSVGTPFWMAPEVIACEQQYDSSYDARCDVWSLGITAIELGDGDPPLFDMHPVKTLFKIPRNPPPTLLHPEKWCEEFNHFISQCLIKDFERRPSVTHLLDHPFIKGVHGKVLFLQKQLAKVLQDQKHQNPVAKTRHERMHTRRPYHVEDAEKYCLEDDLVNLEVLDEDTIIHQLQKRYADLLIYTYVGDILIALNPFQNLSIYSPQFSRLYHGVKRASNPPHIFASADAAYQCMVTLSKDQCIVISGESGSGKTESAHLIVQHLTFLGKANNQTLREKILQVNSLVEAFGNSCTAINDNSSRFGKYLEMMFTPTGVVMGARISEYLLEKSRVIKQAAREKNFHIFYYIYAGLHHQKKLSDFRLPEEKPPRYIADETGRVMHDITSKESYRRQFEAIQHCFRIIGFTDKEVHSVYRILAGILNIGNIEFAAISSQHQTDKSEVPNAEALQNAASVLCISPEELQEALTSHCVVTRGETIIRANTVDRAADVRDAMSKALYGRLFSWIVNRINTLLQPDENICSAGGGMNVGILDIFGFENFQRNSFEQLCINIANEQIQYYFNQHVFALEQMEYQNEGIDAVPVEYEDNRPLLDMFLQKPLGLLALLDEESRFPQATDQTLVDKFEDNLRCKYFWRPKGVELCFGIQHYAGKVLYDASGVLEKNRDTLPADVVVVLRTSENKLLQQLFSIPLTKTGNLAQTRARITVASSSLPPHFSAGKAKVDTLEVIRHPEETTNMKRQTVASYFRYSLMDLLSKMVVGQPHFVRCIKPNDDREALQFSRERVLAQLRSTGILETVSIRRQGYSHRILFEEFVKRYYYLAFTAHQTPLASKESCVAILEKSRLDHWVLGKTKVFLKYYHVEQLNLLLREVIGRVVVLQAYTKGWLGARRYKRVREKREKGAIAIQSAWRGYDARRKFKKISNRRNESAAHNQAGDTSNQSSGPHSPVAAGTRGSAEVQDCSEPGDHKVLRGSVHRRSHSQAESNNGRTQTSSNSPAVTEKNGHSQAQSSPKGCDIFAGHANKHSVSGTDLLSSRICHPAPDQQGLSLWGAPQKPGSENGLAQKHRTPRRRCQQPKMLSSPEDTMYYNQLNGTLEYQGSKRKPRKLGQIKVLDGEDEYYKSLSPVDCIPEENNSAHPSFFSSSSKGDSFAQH
Conditions: kinase MYO3B; for remaining activity at 1 µM: read-out: % of control at 1 µM.

In test [7] the target is T7, panel of 442 kinases (Homo sapiens, UniProt P53778).
T7 construct: purchased Ambit Biosciences (scanMAXX KINOMEscan)
T7 sequence (P53778 1-367): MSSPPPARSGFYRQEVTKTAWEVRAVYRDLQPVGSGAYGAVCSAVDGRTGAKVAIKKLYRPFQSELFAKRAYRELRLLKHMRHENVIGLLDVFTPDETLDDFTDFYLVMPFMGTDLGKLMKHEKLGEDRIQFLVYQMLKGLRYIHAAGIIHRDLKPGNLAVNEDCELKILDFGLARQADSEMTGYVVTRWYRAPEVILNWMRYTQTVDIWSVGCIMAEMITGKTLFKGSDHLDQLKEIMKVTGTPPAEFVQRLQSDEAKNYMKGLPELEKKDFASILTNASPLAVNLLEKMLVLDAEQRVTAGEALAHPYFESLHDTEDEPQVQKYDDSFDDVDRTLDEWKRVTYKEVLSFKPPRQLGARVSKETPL
Conditions: kinase p38-gamma; for remaining activity at 1 µM: read-out: % of control at 1 µM.

The mark [8] stands for this setting: 10 µM, read-out: % of control at 10 µM.

T1 sequence (P09619 33-1106): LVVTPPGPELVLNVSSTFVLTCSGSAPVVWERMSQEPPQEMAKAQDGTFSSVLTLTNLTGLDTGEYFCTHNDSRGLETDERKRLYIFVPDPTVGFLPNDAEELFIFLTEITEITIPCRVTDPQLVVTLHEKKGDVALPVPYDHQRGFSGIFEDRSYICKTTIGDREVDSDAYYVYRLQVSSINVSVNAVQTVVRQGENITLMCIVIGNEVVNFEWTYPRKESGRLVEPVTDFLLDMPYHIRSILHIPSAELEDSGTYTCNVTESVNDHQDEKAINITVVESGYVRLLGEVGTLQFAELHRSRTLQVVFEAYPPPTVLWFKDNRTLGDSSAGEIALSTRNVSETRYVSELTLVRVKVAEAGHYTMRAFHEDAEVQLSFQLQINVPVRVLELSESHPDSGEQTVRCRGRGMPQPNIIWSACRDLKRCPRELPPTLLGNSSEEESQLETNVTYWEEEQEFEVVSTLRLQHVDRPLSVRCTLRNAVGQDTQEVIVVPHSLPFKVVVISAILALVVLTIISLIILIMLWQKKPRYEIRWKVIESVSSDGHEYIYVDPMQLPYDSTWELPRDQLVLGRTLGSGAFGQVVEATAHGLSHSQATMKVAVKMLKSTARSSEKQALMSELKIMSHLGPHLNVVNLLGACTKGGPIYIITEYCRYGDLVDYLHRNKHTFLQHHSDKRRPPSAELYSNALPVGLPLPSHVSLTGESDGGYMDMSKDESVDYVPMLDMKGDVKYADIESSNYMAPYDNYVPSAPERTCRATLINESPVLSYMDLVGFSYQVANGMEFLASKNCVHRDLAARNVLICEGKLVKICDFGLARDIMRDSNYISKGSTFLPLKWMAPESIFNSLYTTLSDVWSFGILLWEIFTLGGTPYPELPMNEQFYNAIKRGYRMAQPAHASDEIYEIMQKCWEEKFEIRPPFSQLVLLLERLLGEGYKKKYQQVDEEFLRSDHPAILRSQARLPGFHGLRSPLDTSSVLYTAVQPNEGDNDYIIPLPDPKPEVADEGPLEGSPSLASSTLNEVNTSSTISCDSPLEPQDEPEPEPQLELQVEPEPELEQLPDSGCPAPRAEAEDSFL

In the case of `Nc1cc(C(F)(F)F)c(-c2cc(N3CCOCC3)nc(N3CCOCC3)n2)cn1` [Buparlisib], the remaining activity at 1 µM amounted to 100% in test [1]; 96% in test [2]; 100% in test [3]; 100% in test [4]; 95% in test [5]; 51% in test [6]. Besides, the remaining activity at 1 µM in test [7] worked out at 100%. Further, the remaining activity at 10 µM was 97% in test [1] (setting [8]); 100% in test [2] (setting [8]); 100% in test [3] (setting [8]); 100% in test [4] (setting [8]); 100% in test [5] (setting [8]); 73% in test [6] (setting [8]). Further, the remaining activity at 10 µM in test [7] (setting [8]) stood at 100%.

`Cn1c(=O)n(-c2ccc(C(C)(C)C#N)cc2)c2c3cc(-c4cnc5ccccc5c4)ccc3ncc21` [Dactolisib, 2-methyl-2-[4-(3-methyl-2-oxo-8-quinolin-3-yl-2,3-dihydroimidazo[4,5-c]quinolin-1-yl)-phenyl] propionitrile]: the remaining activity at 1 µM is 55% in test [2]; 86% in test [3]; 59% in test [4]; 66% in test [5]; 81% in test [6]; 100% in test [7].

On to `COc1ncc(-c2ccc3nccc(-c4ccnnc4)c3c2)cc1NS(=O)(=O)c1ccc(F)cc1F` [Omipalisib], for which the remaining activity at 1 µM in test [1] was 96%; in test [2], 100%; in test [3] it was 100%; in test [4], 100%; in test [5], 100%; in test [6], 91%. Moreover, in test [7], the remaining activity at 1 µM came to 69%.

Take `FC(F)c1nc2ccccc2n1-c1nc(N2CCOCC2)nc(N2CCOCC2)n1` [ZSTK474, 2-(difluoromethyl)-1-[4,6-di(4-morpholinyl)-1,3,5-triazin-2-yl]-1H-benzimidazole]: the remaining activity at 1 µM in test [1] was 100%; in test [2], 99%; in test [3] it was 80%; in test [4], 100%; in test [5], 53%; in test [6] it was 64%. Further, in test [7], the remaining activity at 1 µM is 100%.
